ChEMBL document CHEMBL6096654, “Allosteric inhibition of PTP1B by bromocatechol-chalcone derivatives” (Eur J Med Chem, 2025)

Experiments:
[1] = target: T1, Tyrosine-protein phosphatase non-receptor type 1 (Homo sapiens, UniProt P18031); assay: Allosteric inhibition of PTP1B (unknown origin) using pNPP as substrate incubated for 30 mins by spectrophotometry
T1 sequence (P18031 whole entry): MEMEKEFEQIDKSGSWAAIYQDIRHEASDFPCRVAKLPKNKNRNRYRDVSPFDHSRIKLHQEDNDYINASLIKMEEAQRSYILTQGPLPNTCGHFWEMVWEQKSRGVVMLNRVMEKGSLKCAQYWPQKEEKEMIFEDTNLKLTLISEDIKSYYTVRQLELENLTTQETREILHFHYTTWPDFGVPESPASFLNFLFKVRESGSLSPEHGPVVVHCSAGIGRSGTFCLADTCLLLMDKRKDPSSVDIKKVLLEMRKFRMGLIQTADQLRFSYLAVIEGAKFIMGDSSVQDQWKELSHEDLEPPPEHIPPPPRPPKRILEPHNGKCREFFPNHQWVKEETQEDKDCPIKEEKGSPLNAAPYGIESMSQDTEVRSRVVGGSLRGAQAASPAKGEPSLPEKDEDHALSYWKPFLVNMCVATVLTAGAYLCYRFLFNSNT

[2] = Inhibition of PTP1B N193A/K197A mutant (unknown origin) using pNPP as substrate incubated for 30 mins by spectrophotometry; set-up: species or system Homo sapiens
[3] = target: T2, Tyrosine-protein phosphatase non-receptor type 2 (Homo sapiens, UniProt P17706); assay: Inhibition of TCPTP (unknown origin) using pNPP as substrate incubated for 30 mins by spectrophotometry
T2 sequence (P17706 whole entry): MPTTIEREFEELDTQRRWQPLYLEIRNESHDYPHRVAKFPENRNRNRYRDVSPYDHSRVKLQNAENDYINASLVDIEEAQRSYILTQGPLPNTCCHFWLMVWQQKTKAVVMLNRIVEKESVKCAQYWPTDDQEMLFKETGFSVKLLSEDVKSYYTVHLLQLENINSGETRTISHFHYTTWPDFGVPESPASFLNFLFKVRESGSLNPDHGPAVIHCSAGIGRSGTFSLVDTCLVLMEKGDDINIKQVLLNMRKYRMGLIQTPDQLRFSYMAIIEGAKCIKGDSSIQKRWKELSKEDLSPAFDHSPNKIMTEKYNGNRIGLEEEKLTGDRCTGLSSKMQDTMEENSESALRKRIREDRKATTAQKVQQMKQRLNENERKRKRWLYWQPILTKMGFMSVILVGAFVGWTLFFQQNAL

[4] = target: T3, Tyrosine-protein phosphatase non-receptor type 11 (Homo sapiens, UniProt Q06124); assay: Inhibition of SHP2 (unknown origin) using pNPP as substrate incubated for 30 mins by spectrophotometry
T3 sequence (Q06124 whole entry): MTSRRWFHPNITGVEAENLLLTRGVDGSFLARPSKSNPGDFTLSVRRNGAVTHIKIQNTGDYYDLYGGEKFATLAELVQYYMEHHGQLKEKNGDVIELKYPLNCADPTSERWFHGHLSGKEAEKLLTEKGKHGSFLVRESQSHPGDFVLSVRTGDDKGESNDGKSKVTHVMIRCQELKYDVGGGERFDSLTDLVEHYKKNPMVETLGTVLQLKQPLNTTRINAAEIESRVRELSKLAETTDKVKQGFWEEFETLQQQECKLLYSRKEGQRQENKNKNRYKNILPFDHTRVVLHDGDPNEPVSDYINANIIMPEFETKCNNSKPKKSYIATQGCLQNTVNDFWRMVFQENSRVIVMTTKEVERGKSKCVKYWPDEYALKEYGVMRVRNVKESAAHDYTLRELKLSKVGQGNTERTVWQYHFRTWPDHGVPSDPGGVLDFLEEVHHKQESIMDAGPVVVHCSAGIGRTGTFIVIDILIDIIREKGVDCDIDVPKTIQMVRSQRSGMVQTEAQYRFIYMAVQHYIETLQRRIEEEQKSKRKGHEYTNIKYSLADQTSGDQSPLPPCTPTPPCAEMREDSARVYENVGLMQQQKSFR

Row | SMILES | IC50 [1] | IC50 [2] | IC50 [3] | IC50 [4]
1 | O=C(/C=C/c1cc(O)c(O)c(Br)c1Br)c1ccc(Cl)c(Cl)c1 | 3.02 µM | 11.4 µM | 16 µM | > 20 µM
2 | O=C(/C=C/c1cc(O)c(O)c(Br)c1Br)c1cccc(C(F)(F)F)c1 | 3.59 µM | 15.7 µM | 13.6 µM | > 20 µM
3 | Cc1ccccc1C(=O)/C=C/c1cc(O)c(O)c(Br)c1Br | 1.71 µM | 8.01 µM | 9.4 µM | > 20 µM
4 | COc1ccc(C(=O)/C=C/c2cc(O)c(O)c(Br)c2Br)cc1Br | 1.43 µM | 9.11 µM | 3.74 µM | > 20 µM
5 | O=C(/C=C/c1cc(O)c(O)c(Br)c1Br)c1ccccc1Cl | 2.17 µM | 10.5 µM | 5.74 µM | > 20 µM
6 | COc1ccc(C(=O)/C=C/c2cc(O)c(O)c(Br)c2)cc1Br | 2.45 µM | 9.07 µM | 13.4 µM | > 20 µM
7 | O=C(/C=C/c1cc(O)c(O)c(Br)c1)c1cc(Br)c(O)c(Br)c1 | 2.54 µM | 12.6 µM | 15 µM | > 20 µM

Continued, values first:

Row | IC50 [1] | IC50 [2] | IC50 [3] | IC50 [4] | SMILES
8 | 2.15 µM | 12.6 µM | 9.7 µM | > 20 µM | O=C(/C=C/c1cc(O)c(O)c(Br)c1Br)c1ccc(Cl)cc1
9 | 2 µM | 10.2 µM | 10.3 µM | > 20 µM | Cc1ccc(C(=O)/C=C/c2cc(O)c(O)c(Br)c2Br)cc1
10 | 2.59 µM | 12.7 µM | 8.97 µM | > 20 µM | O=C(/C=C/c1cc(O)c(O)c(Br)c1Br)c1cccc(Cl)c1
11 | 3.25 µM | 9.18 µM | 17.3 µM | > 20 µM | CCOc1ccc(C(=O)/C=C/c2cc(O)c(O)c(Br)c2Br)cc1
